Our source for the IC50 and Emax values is patent publication US20250186408A1, “TREATMENT OF PHARMACORESISTANT EPILEPSY” (Katholieke Universiteit Leuven, priority 2021, published 2025).

Where two headings read alike, the source gives them in different places. Some results are limits rather than exact numbers.

For experiment [1], the target named is DRD2S (Homo sapiens, UniProt P14416). Briefly: cAMP DRD2S Antagonist. The following applies: for Emax: read-out: Max response.
Protocol: (§4) In vitro pharmacological profiling of compounds was done against 78 functional assays for 47 common off-targets (30) by Eurofins DiscoverX Corporation (Fremont, CA, USA) using their SAFETYscan E/IC50 ELECT service (Cat Ref 87-1003DR, Safety47 Panel Dose Response). […] Compounds were tested in a range of 10 concentrations, following a 3-fold serial dilution, starting from 10 μM.
(§5) cAMP Hunter cell lines were expanded from freezer stocks. Prior to testing, cells were seeded in a total volume of 20 μL into white walled 384-well microplates and incubated at 37° C. cAMP modulation was determined using the DiscoverX HitHunter cAMP XS+ assay. For Gs agonist determination, cells were incubated with sample to induce response. For Gi agonist determination, cells were incubated with sample in the presence of EC80 forskolin to induce response. For both conditions, media was aspirated from cells and replaced with 15 μL 2:1 HBSS/10 mM HEPES:cAMP XS+ Ab reagent. Intermediate dilution of sample stocks was performed to generate 4× sample in assay buffer (containing 4×EC80 forskolin in the case of antagonist determination). 5 μL of 4× sample was added to cells and incubated at 37° C. or room temperature (RT) for 30 or 60 min. Final assay vehicle concentration was 1%. For antagonist determination, cells were pre-incubated with sample followed by agonist challenge at the EC80 concentration. Media was aspirated from cells and replaced with 10 μL 1:1 HBSS/HEPES:cAMP XS+ Ab reagent. 5 μL of 4× compound was added to the cells and incubated at 37° C. or RT for 30 min. 5 μL of 4×EC80 agonist was added to the cells and incubated at 37° C. or RT for 30 or 60 min. For Gi coupled GPCRs, EC80 forskolin was included. […] Microplates were read following signal generation with a PerkinElmer Envision™ instrument for chemiluminescent signal detection. Compound activity was analyzed using CBIS data analysis suite (ChemInnovation, CA).
The target in experiment [2] is nAChR (a4/b2) (Homo sapiens, UniProt P17787+P43681). The experiment in a line: Ion Channel nAChR (a4/b2) Blocker. Type of experiment: cell-based. To be noted: for Emax: Ion Channel nAChR (a4/b2) Blocker, read-out: Max response.
nAChR (a4/b2), sequence (P43681 29-627 limits assumed): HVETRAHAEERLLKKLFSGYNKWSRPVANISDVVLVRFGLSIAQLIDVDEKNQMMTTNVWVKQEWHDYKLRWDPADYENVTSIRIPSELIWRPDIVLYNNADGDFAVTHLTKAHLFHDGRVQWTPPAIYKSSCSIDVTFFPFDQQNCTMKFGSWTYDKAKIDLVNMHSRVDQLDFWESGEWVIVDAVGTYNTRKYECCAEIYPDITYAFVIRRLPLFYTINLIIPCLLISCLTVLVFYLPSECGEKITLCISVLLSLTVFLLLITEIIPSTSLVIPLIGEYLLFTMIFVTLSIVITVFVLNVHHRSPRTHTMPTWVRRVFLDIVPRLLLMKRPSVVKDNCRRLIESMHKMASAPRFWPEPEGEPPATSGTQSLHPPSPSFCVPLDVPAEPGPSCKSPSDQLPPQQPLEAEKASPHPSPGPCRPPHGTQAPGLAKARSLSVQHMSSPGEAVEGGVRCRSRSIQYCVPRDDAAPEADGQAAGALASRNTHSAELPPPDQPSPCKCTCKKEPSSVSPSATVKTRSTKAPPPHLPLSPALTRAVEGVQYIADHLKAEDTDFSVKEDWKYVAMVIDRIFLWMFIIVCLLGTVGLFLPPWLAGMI
nAChR (a4/b2), sequence (P17787 26-502): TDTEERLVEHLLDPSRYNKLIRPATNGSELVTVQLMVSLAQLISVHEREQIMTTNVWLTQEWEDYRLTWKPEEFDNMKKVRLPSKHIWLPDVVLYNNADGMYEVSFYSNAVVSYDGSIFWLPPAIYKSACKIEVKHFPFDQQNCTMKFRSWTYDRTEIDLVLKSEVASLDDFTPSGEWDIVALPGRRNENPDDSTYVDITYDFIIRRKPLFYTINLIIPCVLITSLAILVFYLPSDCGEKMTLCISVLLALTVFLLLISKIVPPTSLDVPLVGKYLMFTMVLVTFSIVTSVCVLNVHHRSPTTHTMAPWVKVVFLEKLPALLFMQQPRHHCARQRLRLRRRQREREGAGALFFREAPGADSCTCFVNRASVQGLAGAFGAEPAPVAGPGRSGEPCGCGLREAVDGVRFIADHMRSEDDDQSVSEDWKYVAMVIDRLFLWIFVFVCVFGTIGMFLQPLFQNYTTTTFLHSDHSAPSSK
For experiment [3], the target named is HTR1B (Homo sapiens, UniProt P28222). Briefly: cAMP HTR1B Antagonist. The following applies: for Emax: read-out: Max response.
HTR1B, sequence (P28222 whole entry): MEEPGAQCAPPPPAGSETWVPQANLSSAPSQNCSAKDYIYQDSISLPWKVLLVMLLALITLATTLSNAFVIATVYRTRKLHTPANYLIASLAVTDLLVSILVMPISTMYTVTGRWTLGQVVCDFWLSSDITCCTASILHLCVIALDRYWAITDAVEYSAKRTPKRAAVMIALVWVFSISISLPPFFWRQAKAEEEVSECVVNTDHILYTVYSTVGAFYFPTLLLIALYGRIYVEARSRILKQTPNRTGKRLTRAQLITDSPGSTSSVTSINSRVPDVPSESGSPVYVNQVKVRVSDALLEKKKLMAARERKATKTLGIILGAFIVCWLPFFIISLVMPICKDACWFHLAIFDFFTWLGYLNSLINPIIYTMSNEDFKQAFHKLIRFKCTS
Protocol: as §4, §5
The target of experiment [4] is ADORA2A (Homo sapiens, UniProt P29274). The experiment in a line: Calcium Flux ADORA2A Antagonist. It counts as cell-based. The following applies: for IC50: read-out: RC50, result type IC50; for Emax: read-out: Max response. Here is the method:
(≤0.2% DMSO concentration). Assays were performed in 1× dye loading buffer consisting of 1× Dye (DiscoverX, Calcium No Wash^PLUS kit, Catalog No. 90-0091), 1× Additive A and 2.5 mM Probenecid in HBSS/20 mM HEPES. Probenecid was prepared fresh. Prior to testing, media was aspirated from cells and replaced with 25 μL dye loading buffer. Cells were incubated for 45 min at 37° C. and then 20 min at RT. For agonist determination, 25 μL of 2× compound in HBSS/20 mM HEPES was added using a FLIPR Tetra (MDS). […] 25 μL of 2× sample was added and cells were incubated for 30 min at RT in the dark to equilibrate plate temperature. After incubation, antagonist determination was initiated by addition of 25 μL of 1× compound with 3×EC80 agonist using FLIPR. For both agonist and antagonist formats, activity was measure on a FLIPR Tetra (MDS). Calcium mobilization was monitored for 2 min with a 5 sec baseline read.
FLIPR read—Area under the curve, was calculated for the entire 2 min read.
On the technique in general: Calcium flux is commonly read through the fluorescence of an indicator in the cells.

Experiment [5] concerns the target T1, SERT (Homo sapiens, UniProt P31645).
T1 construct: Eurofins DiscoverX Corporation 87-1003DR; host or cells: unnamed cell lines
Briefly: Transporter SERT Blocker. It counts as cell-based. The following applies: for Emax: Transporter SERT Blocker, read-out: Max response. How it is done: After cell plating and incubation, media was removed an 25 μL of 1× compound in 1×HBSS/0.1% BSA was added. Compounds were incubated with cells for 30 min at 37° C. After compound incubation, 25 μL of 1× dye loading buffer (1× dye, 1×HBSS/20 mM HEPES) was added to the wells. Cells were incubated for 30-60 min at 37° C. After incubation, microplates were transferred to a PerkinElmer Envision™ instrument for fluorescent signal detection. […] For blocker mode assays, percentage of inhibition was calculated using the following formula: […]

Experiment [6] addresses T2, INSR (Homo sapiens, UniProt P06213).
T2 construct: purchased Eurofins DiscoverX Corporation 87-1003DR; host or cells: E. coli BL21-derived host (T7 phage) or HEK-293
Briefly: Binding (KINOMEscan) INSR Inhibitor. The following applies: for IC50: read-out: RC50, result type IC50; for Emax: read-out: Max response. How it is done: (§1) For most assays, kinase-tagged T7 phage strains were grown in parallel in 24-well blocks in an E. coli host derived from the BL21 strain. E. coli were grown to log-phase and infected with T7 phage from a frozen stock (multiplicity of infection=0.4) and incubated with shaking at 32° C. until lysis (90-150 min). The lysates were centrifuged (6,000×g) and filtered (0.2 μm) to remove cell debris. The remaining kinases were produced in HEK-293 cells and subsequently tagged with DNA for qPCR detection. Streptavidin-coated magnetic beads were treated with biotinylated small molecule ligands for 30 min at RT to generate affinity resins for kinase assays. The liganded beads were blocked with excess biotin and washed with blocking buffer (SeaBlock (Pierce), 1% BSA, 0.05% Tween 20, 1 mM DTT) to remove unbound ligand and to reduce non-specific phage binding. […] All reactions were performed in polypropylene 384-well plates in a final volume of 0.02 mL. […] The beads were then re-suspended in elution buffer (1×PBS, 0.05% Tween 20, 0.5 μM non-biotinylated affinity ligand) and incubated at RT with shaking for 30 min. The kinase concentration in the eluates was measured by qPCR.
(§2) The kinase concentration in the eluates was measured by qPCR. qPCR reactions were assembled by adding 2.5 μL of kinase eluate to 7.5 μL of qPCR master mix containing 0.15 μM amplicon primers and 0.15 μM amplicon probe. The qPCR protocol consisted of a 10 min hot start at 95° C., followed by 35 cycles of 95° C. for 15 sec, 60° C. for 1 min.
(§3) Binding constants (Kds) were calculated with a standard dose-response curve using the Hill equation: […]

In experiment [7] the target is OPRM1 (Homo sapiens, UniProt P35372). The experiment in a line: cAMP OPRM1 Antagonist. The following applies: for Emax: OPRM1, read-out: Max response.
OPRM1, sequence (P35372 whole entry): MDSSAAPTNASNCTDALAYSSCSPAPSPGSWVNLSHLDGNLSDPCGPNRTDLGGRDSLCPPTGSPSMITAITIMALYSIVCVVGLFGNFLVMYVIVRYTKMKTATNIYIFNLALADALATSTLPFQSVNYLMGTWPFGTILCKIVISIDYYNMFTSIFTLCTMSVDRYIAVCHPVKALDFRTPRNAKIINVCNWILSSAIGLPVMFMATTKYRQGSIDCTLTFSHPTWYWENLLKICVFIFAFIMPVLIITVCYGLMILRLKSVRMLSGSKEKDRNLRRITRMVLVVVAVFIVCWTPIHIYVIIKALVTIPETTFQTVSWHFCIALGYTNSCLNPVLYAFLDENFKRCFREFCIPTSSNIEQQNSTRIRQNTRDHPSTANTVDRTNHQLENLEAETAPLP
Protocol: (§6) In vitro pharmacological profiling of compounds was done against 78 functional assays for 47 common off-targets (30) by Eurofins DiscoverX Corporation (Fremont, CA, USA) using their SAFETYscan E/IC50 ELECT service (Cat Ref 87-1003DR, Safety47 Panel Dose Response). […] Compounds were tested in a range of 10 concentrations, following a 3-fold serial dilution, starting from 10 μM. The assays were performed utilizing the PathHunter enzyme fragment complementation (EFC) technology, FLIPR®-based cellular screening assays, and KINOMEscan kinase binding assays.
cAMP Hunter cell lines were expanded from freezer stocks. Prior to testing, cells were seeded in a total volume of 20 μL into white walled 384-well microplates and incubated at 37° C. cAMP modulation was determined using the DiscoverX HitHunter cAMP XS+ assay. For Gs agonist determination, cells were incubated with sample to induce response. For Gi agonist determination, cells were incubated with sample in the presence of EC80 forskolin to induce response. For both conditions, media was aspirated from cells and replaced with 15 μL 2:1 HBSS/10 mM HEPES:cAMP XS+ Ab reagent. Intermediate dilution of sample stocks was performed to generate 4× sample in assay buffer (containing 4×EC80 forskolin in the case of antagonist determination). 5 μL of 4× sample was added to cells and incubated at 37° C. or room temperature (RT) for 30 or 60 min. Final assay vehicle concentration was 1%. For antagonist determination, cells were pre-incubated with sample followed by agonist challenge at the EC80 concentration. Media was aspirated from cells and replaced with 10 μL 1:1 HBSS/HEPES:cAMP XS+ Ab reagent. 5 μL of 4× compound was added to the cells and incubated at 37° C. or RT for 30 min. 5 μL of 4×EC80 agonist was added to the cells and incubated at 37° C. or RT for 30 or 60 min. For Gi coupled GPCRs, EC80 forskolin was included. […] Microplates were read following signal generation with a PerkinElmer Envision™ instrument for chemiluminescent signal detection. Compound activity was analyzed using CBIS data analysis suite (ChemInnovation, CA). For Gs agonist mode assays, percentage activity was calculated using the following equation:
In experiment [8] the target is T3, LCK (Homo sapiens, UniProt P06239).
T3 construct: purchased Eurofins DiscoverX Corporation 87-1003DR; host or cells: E. coli BL21-derived host (T7 phage) or HEK-293
The experiment in a line: Binding (KINOMEscan) LCK Inhibitor. To be noted: for IC50: read-out: RC50, result type IC50; for Emax: read-out: Max response. Here is the method: as §1, §2, §3

Experiment [9] deals with GABAA (Homo sapiens, UniProt P14867+P18507+P47870). Briefly: Ion Channel GABAA Opener. To be noted: read-out: Max response. It counts as cell-based.
In experiment [10] the target is CHRM3 (Homo sapiens, UniProt P20309). The experiment in a line: Calcium Flux CHRM3 Antagonist. The following applies: for Emax: read-out: Max response.
CHRM3, sequence (P20309 whole entry): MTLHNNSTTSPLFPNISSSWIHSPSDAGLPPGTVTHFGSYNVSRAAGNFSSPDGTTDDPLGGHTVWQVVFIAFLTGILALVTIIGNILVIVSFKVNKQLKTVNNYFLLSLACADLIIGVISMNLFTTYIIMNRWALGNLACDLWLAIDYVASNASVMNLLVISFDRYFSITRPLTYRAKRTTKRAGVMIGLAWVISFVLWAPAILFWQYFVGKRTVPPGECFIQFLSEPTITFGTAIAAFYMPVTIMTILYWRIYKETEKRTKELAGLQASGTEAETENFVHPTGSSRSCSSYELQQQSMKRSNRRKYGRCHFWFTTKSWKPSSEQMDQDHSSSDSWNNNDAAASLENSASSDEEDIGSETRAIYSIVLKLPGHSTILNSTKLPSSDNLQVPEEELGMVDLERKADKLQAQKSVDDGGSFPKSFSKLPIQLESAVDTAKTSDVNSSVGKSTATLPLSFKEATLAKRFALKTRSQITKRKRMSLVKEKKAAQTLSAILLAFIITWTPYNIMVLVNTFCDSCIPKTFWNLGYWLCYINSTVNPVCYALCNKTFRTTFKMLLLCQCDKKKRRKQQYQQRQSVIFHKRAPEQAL
Protocol: as §6
Prior to testing, cells (10,000 cells/well) were expanded from freezer stocks and seeded into a total volume of 50 μL into black walled, clear-bottom, Poly-D-lysine coated 384-well microplates and incubated at 37° C. […] Assays were performed in 1× dye loading buffer consisting of 1× Dye (DiscoverX, Calcium No Wash^PLUS kit, Catalog No. 90-0091), 1× Additive A and 2.5 mM Probenecid in HBSS/20 mM HEPES. Probenecid was prepared fresh. Prior to testing, media was aspirated from cells and replaced with 25 μL dye loading buffer. Cells were incubated for 45 min at 37° C. and then 20 min at RT. For agonist determination, 25 μL of 2× compound in HBSS/20 mM HEPES was added using a FLIPR Tetra (MDS). For antagonist determination, cells were pre-incubated with sample followed by agonist challenge at the EC80 concentration. 25 μL of 2× sample was added and cells were incubated for 30 min at RT in the dark to equilibrate plate temperature. After incubation, antagonist determination was initiated by addition of 25 μL of 1× compound with 3×EC80 agonist using FLIPR. For both agonist and antagonist formats, activity was measure on a FLIPR Tetra (MDS). Calcium mobilization was monitored for 2 min with a 5 sec baseline read.
FLIPR read—Area under the curve, was calculated for the entire 2 min read. Compound activity was analysed using CBIS data analysis suite (ChemInnovation, CA).
[11] abbreviates: Calcium Flux ADORA2A Antagonist.

ADORA2A, sequence (P29274 whole entry): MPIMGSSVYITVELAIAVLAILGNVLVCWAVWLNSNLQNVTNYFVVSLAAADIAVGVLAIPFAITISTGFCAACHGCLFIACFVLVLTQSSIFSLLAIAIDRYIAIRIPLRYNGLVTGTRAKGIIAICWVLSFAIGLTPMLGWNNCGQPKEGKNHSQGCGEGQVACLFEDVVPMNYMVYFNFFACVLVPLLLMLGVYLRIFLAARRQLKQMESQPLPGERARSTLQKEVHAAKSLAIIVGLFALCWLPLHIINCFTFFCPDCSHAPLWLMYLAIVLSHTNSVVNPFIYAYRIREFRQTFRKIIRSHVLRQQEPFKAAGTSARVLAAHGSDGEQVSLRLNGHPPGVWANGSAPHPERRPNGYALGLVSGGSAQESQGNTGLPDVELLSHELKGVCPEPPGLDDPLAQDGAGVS
T2 sequence (P06213 28-1382): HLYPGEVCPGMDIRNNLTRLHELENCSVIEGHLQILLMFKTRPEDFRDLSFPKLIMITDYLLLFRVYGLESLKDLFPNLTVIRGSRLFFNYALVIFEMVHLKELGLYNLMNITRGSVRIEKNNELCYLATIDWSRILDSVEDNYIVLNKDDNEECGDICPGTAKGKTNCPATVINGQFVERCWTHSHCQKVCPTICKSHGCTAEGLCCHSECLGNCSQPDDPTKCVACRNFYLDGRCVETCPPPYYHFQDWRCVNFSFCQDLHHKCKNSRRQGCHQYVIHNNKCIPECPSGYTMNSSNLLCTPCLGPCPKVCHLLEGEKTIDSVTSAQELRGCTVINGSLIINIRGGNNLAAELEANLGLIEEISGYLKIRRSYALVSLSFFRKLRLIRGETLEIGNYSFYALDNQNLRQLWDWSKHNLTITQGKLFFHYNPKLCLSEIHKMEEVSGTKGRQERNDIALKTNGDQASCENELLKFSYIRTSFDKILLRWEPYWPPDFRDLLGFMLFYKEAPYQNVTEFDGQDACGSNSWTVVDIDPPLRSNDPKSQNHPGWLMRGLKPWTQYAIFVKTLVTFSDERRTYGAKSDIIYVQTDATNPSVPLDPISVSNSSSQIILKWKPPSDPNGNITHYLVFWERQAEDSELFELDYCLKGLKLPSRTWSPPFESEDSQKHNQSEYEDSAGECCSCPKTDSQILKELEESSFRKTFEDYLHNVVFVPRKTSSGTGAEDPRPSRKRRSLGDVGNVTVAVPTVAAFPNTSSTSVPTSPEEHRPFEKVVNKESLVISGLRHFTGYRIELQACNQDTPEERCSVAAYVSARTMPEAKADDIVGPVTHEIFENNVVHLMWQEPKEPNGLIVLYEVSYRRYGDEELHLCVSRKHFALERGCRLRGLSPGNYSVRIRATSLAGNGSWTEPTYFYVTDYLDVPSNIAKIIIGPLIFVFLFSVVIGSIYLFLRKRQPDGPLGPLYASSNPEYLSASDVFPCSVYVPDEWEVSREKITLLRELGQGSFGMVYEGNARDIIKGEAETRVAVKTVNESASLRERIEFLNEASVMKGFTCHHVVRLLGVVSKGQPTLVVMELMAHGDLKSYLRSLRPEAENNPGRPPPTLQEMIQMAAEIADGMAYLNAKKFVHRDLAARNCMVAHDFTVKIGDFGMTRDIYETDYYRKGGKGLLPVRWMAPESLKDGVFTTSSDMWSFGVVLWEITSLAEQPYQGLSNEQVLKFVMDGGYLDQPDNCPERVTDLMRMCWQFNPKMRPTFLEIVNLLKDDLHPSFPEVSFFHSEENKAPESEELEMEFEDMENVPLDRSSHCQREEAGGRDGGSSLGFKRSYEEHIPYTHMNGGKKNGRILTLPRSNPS
DRD2S, sequence (P14416 1-414 isoform P14416-2): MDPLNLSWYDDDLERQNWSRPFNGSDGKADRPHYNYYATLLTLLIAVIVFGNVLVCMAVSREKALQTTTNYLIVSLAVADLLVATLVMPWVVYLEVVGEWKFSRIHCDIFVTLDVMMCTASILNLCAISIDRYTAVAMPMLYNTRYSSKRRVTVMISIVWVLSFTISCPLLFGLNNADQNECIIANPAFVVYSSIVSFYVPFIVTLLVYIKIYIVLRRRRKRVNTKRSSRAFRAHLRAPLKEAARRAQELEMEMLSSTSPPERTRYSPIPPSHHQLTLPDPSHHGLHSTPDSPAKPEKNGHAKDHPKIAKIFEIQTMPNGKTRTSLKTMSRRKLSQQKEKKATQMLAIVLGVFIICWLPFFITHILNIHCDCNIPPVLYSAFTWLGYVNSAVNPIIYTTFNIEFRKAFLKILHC

By IC50 is commonly meant the concentration needed to halve the response being measured. As to `CC(C)(C)c1ccc(C#CC(O)c2ccccc2)cc1` (racemic) [Compound 3.3, rac-3-(4-(tert-butyl)phenyl)-1-phenylprop-2-yn-1-ol], the IC50 in experiment [1] was 7.9 µM; in experiment [2] it was 6.9 µM; in [3], 6.4 µM; in experiment [4] (setting [11]), more than 10 µM; in experiment [5] it was more than 10 µM; in experiment [6] (Binding INSR Inhibitor) it was more than 10 µM. For the same compound, the IC50 in experiment [7], in [8] (Binding LCK Inhibitor) and in experiment [10] was more than 10 µM each time. Besides, the Emax in experiment [1] is 63.5%; in [2] it was 73.9%; in experiment [3] it was 66.2%; in experiment [4], 0%; in experiment [5], 0%; in experiment [6] it was 10.3%. Moreover, the Emax in experiment [7] worked out at 0.8%; in experiment [8] it was 0%; in [9], 0%; in experiment [10], 0%.

As for `Clc1cccc(C#Cc2n[nH]c3ncccc23)c1` [Compound 10.1, 3-((3-chlorophenyl)ethynyl)-1H-pyrazolo[3,4-b]pyridine], the IC50 in experiment [1], in experiment [2], in experiment [3], in experiment [4] (setting [11]), in experiment [5] and in experiment [6] (Binding INSR Inhibitor) was more than 10 µM each time. In addition, the IC50 in experiment [7], in experiment [8] (Binding LCK Inhibitor) and in experiment [10] was more than 10 µM in each case. Besides, the Emax in [1] was determined as 0%; in [2], 1.5%; in [3] it was 0%; in experiment [4] (setting [11]), 0%; in experiment [5], 0%; in experiment [6] (Binding INSR Inhibitor), 0%. Also, the Emax worked out at 0% in experiment [7], 0% in [8] (Binding LCK Inhibitor), 1.3% in experiment [9] and 0% in experiment [10].
